Holding throughout (type): cell-based
The test system of experiment [1] is Trypanosoma brucei brucei (Lister 427) strain. Nature of the experiment: Assay for growth inhibition against Trypanosoma brucei brucei (Cell TiterGlo ATP luminescence). As to conditions: Trypanosoma brucei, T. brucei brucei (Lister 427); read-out: T. Brucei (HAT) EC50. The gist of the method: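 Growth read-out is cellular ATP by CellTiter-Glo luminescence, measured 30 min after reagent addition, following 2-day incubation at 37 °C in CO2. Parasites (10,000/mL, HMI-9 plus 10% FBS and 10% serum plus) faced 10 threefold dilutions in duplicate; IC50 taken as 50% growth inhibition versus untreated.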
On the technique in general: ATP-based viability assays read luminescence as a measure of living cells.

Experiment [2] has as its system Trypanosoma cruzi amastigotes cultured in 3T3 fibroblast cells. Briefly: Assay for growth inhibition of kinetoplastid parasite Trypanosoma cruzi (beta-galactosidase Tulahuen strain, CPRG readout). As to conditions: Trypanosoma cruzi, Fibroblast, T. cruzi amastigotes in 3T3 fibroblast cells; read-out: Buckner infectious T. cruzi EC50. In outline:
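3T3 fibroblasts (1,000 cells/well) plated overnight, treated with compound in DMSO, then infected with 10,000 Lac-Z-expressing Tulahuen trypomastigotes. After 6 days, 0.6 mM CPRG with 0.6% NP-40 added for 2 h at room temperature; absorbance gives relative intracellular amastigote numbers. Benznidazole and nifurtimox serve as positive controls.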

For experiment [3], the system named is L. donovani HU3 strain in mouse peritoneal macrophages. Briefly: Assay for inhibition of parasitemia of Leishmania donovani in mouse macrophages (SYBR Green nuclei count, high-content imaging). Particulars: Leishmania donovani, Peritoneal macrophage, L. donovani in mouse peritoneal macrophages; read-out: L. donovani in Mouse Macrophages EC50. The gist of the method:
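Parasite numbers were counted from SYBR Green-stained nuclei imaged by high-content microscopy after paraformaldehyde fixation and Triton permeabilization. Before this, compound was applied for 5 days at 37° C to BALB/c peritoneal macrophages (2×10^4/well) that had been exposed 24 h to 4×10^5 L. donovani HU3 amastigotes harvested from infected mouse spleens.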

In experiment [4] the test system is Leishmania donovani axenic amastigote. Briefly: In vitro assay for growth inhibition of Leishmania donovani axenic amastigote (Cell TiterGlo luminescence). As to conditions: Leishmania donovani, L. donovani axenic amastigotes in vitro; read-out: L. donovani amastigotes EC50. The gist of the method:
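Compound-treated wells received 9600 axenic amastigotes in RPMI 1640-based medium at pH 5.5 (37 °C, 5% CO2). Growth measured as ATP luminescence (CellTiter-Glo) after 2-day incubation; DMSO and reference compounds served as controls.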

We go through 22 compounds from patent US11384078B2, “5,6-fused-bicyclic compounds and compositions for the treatment of parasitic diseases” (NOVARTIS AG, priority 2017, dated 2022).

Structures are written as SMILES.

`O=C(Nc1ccc(F)c(-n2cc3cc(N4CC5(CC5)C4)cnc3n2)c1)N1CCC1` [Compound 257, N-(3-(5-(5-azaspiro[2.3]hexan-5-yl)-2H-pyrazolo[3,4-b]pyridin-2-yl)-4-fluorophenyl)azetidine-1-carboxamide]: the EC50 worked out at 0.004 µM in experiment [1], 0.002 µM in experiment [2], 0.007 µM in experiment [3] and 0.014 µM in experiment [4].
Regarding `O=C(Nc1ccc(F)c(-n2cc3cc(N4CC5(CC5)C4)cnc3n2)c1)N1CC(F)(F)C1` [Compound 258, N-[3-(5-{5-azaspiro[2.3]hexan-5-yl}-2H-pyrazolo[3,4-b]pyridin-2-yl)-4-fluorophenyl}-3,3-difluoroazetidine-1-carboxamide], the EC50 is 0.028 µM in experiment [1], 0.012 µM in experiment [2], 0.039 µM in experiment [3] and 0.023 µM in experiment [4].
As to `O=C(Nc1ccc(F)c(-n2cc3cc(N4CC5(CC5)C4)cnc3n2)c1)N1CC[C@@H](F)C1` [Compound 259, (3R)-N-[3-(5-{5-azaspiro[2.3]hexan-5-yl}-2H-pyrazolo[3,4-b]pyridin-2-yl)-4-fluorophenyl}-3-fluoropyrrolidine-1-carboxamide], the EC50 was 0.004 µM in experiment [1], 0.003 µM in experiment [2], 0.016 µM in experiment [3] and 0.012 µM in experiment [4].
For `CN(C)c1cnc2nn(-c3cc(NC(=O)N4CC5(CC5)C4)ccc3F)cc2c1` [Compound 260, N-{3-[5-(dimethylamino)-2H-pyrazolo[3,4-b]pyridin-2-yl]-4-fluorophenyl}-5-azaspiro[2.3]hexane-5-carboxamide], in that order: 0.043 µM, 0.049 µM, 0.224 µM and 0.221 µM.
The like results for `O=C(Nc1ccc(F)c(-n2cc3cc(N4C5COCC4C5)cnc3n2)c1)N1CC(F)C1` [Compound 263, 3-fluoro-N-[4-fluoro-3-(5-{3-oxa-6-azabicyclo[3.1.1]heptan-6-yl}-2H-pyrazolo[3,4-b]pyridin-2-yl)phenyl]azetidine-1-carboxamide] were, in that order, 0.01 µM, 0.045 µM, 0.068 µM and 0.012 µM.
On to `O=C(Nc1ccc(F)c(-n2cc3cc(C4CCN4)cnc3n2)c1)N1CC(F)C1` (stereo not shown) [Compound 264, N-{3-[5-(azetidin-2-yl)-2H-pyrazolo[3,4-b]pyridin-2-yl]-4-fluorophenyl}-3-fluoroazetidine-1-carboxamide], for which the EC50 was found to be 0.384 µM in experiment [1], 0.48 µM in experiment [2], 13.7 µM in experiment [3] and 0.357 µM in experiment [4].
Regarding `O=C(Nc1ccc(F)c(-n2cc3cc(N4CC(C(F)(F)F)C4)cnc3n2)c1)N1CC(F)C1` [Compound 265, 3-fluoro-N-(4-fluoro-3-(5-(3-(trifluoromethyl)azetidin-1-yl)-2H-pyrazolo[3,4-b]pyridin-2-yl)phenyl)azetidine-1-carboxamide], the EC50 in experiment [1] is 0.001 µM; in experiment [2], 0.002 µM; in experiment [3], 0.004 µM; in experiment [4] it was 0.003 µM.
With `N#CC1CN(c2cnc3nn(-c4cc(NC(=O)N5CC(F)C5)ccc4F)cc3c2)C1` [Compound 266, N-{3-[5-(3-cyanoazetidin-1-yl)-2H-pyrazolo[3,4-b]pyridin-2-yl]-4-fluorophenyl}-3-fluoroazetidine-1-carboxamide], the EC50 in experiment [1] came to 0.005 µM; in experiment [2] it was 0.065 µM; in experiment [3] it was 0.029 µM; in experiment [4], 0.008 µM.
The like results for `CC(=O)N1CCC1c1cnc2nn(-c3cc(NC(=O)N4CC(F)C4)ccc3F)cc2c1` (stereo not shown) [Compound 267, N-(3-(5-(1-acetylazetidin-2-yl)-2H-pyrazolo[3,4-b]pyridin-2-yl)-4-fluorophenyl)-3-fluoroazetidine-1-carboxamide] were, in that order, 0.081 µM, 9.4 µM, 13.8 µM and 1.71 µM.
For `O=C(Nc1ccc(F)c(-n2cc3cc(N4CCNCC4)cnc3n2)c1)N1CC(F)C1` [Compound 270, 3-fluoro-N-{4-fluoro-3-[5-(piperazin-1-yl)-2H-pyrazolo[3,4-b]pyridin-2-yl]phenyl}azetidine-1-carboxamide], the EC50 in experiment [1] is 0.079 µM; in experiment [2], 1.7 µM; in experiment [3], 2.17 µM; in experiment [4], 0.233 µM.
For the compound `O=C(Nc1ccc(F)c(-n2cc3cc(N4CC(C(F)(F)F)C4)cnc3n2)c1)N1CCC1` [Compound 274], the EC50 was determined as 0.001 µM in experiment [1], 0.001 µM in experiment [2], 0.003 µM in experiment [3] and 0.002 µM in experiment [4].
As to `O=C(Nc1ccc(F)c(-n2cc3cc(N4CC(C(F)(F)F)C4)cnc3n2)c1)N1CC[C@@H](F)C1` [Compound 275], the EC50 was found to be 0.001 µM in experiment [1], 0.001 µM in experiment [2], 0.003 µM in experiment [3] and 0.003 µM in experiment [4].
As for `O=C(Nc1ccc(F)c(-n2cc3cc(Cl)cnc3n2)c1)N1CC(F)C1` [Compound 276, N-(3-{5-chloro-2H-pyrazolo[3,4-b]pyridin-2-yl}-4-fluorophenyl)-3-fluoroazetidine-1-carboxamide], the EC50 was determined as 0.033 µM in experiment [1], 0.021 µM in experiment [2], 0.1 µM in experiment [3] and 0.029 µM in experiment [4].
For `Cc1nc(CO)c(C(=O)Nc2ccc(F)c(-n3cc4cc(-c5ncccc5C)cnc4n3)c2)o1` [Compound 277, N-(4-fluoro-3-(5-(3-methylpyridin-2-yl)-2H-pyrazolo[3,4-b]pyridin-2-yl)phenyl)-4-(hydroxymethyl)-2-methyloxazole-5-carboxamide], in that order: 0.082 µM, 0.144 µM, 0.138 µM and 0.04 µM.
For `O=C(Nc1ccnc(-n2cc3cc(N4CC(F)(F)C4)cnc3n2)c1)N1CCC1` [Compound 280, N-(2-(5-(3,3-difluoroazetidin-1-yl)-2H-pyrazolo[3,4-b]pyridin-2-yl)pyridin-4-yl)azetidine-1-carboxamide], in that order: 0.04 µM, 0.048 µM, 0.028 µM and 0.033 µM.
With `O=C(Nc1ccnc(-n2cc3cc(-c4ccccn4)cnc3n2)c1)N1CC(F)(F)C1` [Compound 281, 3,3-difluoro-N-(2-(5-(pyridin-2-yl)-2H-pyrazolo[3,4-b]pyridin-2-yl)pyridin-4-yl)azetidine-1-carboxamide], the EC50 in experiment [1] came to 0.014 µM; in experiment [2] it was 0.015 µM; in experiment [3] it was 0.026 µM; in experiment [4], 0.009 µM.
With `O=C(Nc1ccnc(-n2cc3cc(N4CC5(CC5)C4)cnc3n2)c1)N1CCC1` [Compound 282, N-[2-(5-{5-azaspiro[2.3]hexan-5-yl}-2H-pyrazolo[3,4-b]pyridin-2-yl)pyridin-4-yl}azetidine-1-carboxamide], the EC50 in experiment [1] stood at 0.027 µM; in experiment [2], 0.04 µM; in experiment [3] it was 0.07 µM; in experiment [4], 0.034 µM.
For `O=C(Nc1ccc(Cl)c(-n2cc3cc(-c4ccccn4)cnc3n2)c1)N1CC(F)C1` [Compound 283, N-{4-chloro-3-[5-(pyridin-2-yl)-2H-pyrazolo[3,4-b]pyridin-2-yl]phenyl}-3-fluoroazetidine-1-carboxamide], the EC50 in experiment [1] is 0.008 µM; in experiment [2] it was 0.005 µM; in experiment [3] it was 0.019 µM; in experiment [4], 0.007 µM.
Regarding `O=C(Nc1ccc(Cl)c(-n2cc3cc(N4CC(F)(F)C4)cnc3n2)c1)N1CCC1` [Compound 284, N-{4-chloro-3-[5-(3,3-difluoroazetidin-1-yl)-2H-pyrazolo[3,4-b]pyridin-2-yl]phenyl}azetidine-1-carboxamide], the EC50 in experiment [1] was 0.015 µM; in experiment [2] it was 0.015 µM; in experiment [3] it was 0.056 µM; in experiment [4] it was 0.027 µM.
Take `O=C(Nc1ccc(Cl)c(-n2cc3cc(-c4ccccn4)cnc3n2)c1)N1CCC1` [Compound 285, N-{4-chloro-3-[5-(pyridin-2-yl)-2H-pyrazolo[3,4-b]pyridin-2-yl]phenyl}azetidine-1-carboxamide]: the EC50 was 0.004 µM in experiment [1], 0.003 µM in experiment [2], 0.009 µM in experiment [3] and 0.004 µM in experiment [4].
As to `O=C(Nc1ccc(Cl)c(-n2cc3cc(N4CC5(CC5)C4)cnc3n2)c1)N1CCC1` [Compound 286, N-[3-(5-{5-azaspiro[2.3]hexan-5-yl}-2H-pyrazolo[3,4-b]pyridin-2-yl)-4-chlorophenyl]azetidine-1-carboxamide], the EC50 in experiment [1] was 0.03 µM; in experiment [2] it was 0.014 µM; in experiment [3], 0.047 µM; in experiment [4] it was 0.025 µM.
For `O=C(Nc1cccc(-n2cc3cc(N4CC5(CC5)C4)cnc3n2)c1)N1CCC1` [Compound 287, N-[3-(5-{5-azaspiro[2.3]hexan-5-yl}-2H-pyrazolo[3,4-b]pyridin-2-yl)phenyl]azetidine-1-carboxamide], in that order: 0.01 µM, 0.021 µM, 0.03 µM and 0.021 µM.

As usually defined, the EC50 is the concentration needed to bring the measured effect to its halfway point.
